According to patent US20070117776A1, “Low Dose Therapy Of DNA Methylation Inhibitors” (priority 2005, published 2007):
Like-named read-outs stand apart in the source and are kept apart here.

Tests used:
[1] = assay type: physicochemical
Protocol: Maintaining the solution at low temperature and buffering the drug can control degradation kinetics of aqueous solutions but the stability achieved is not sufficient to render the product stable during its entire proposed shelf life. A dry solid formulation of decitabine which is stable was achieved by lyophilization of an aqueous solution. The process of lyophilization to obtain a solid form is considered essential for maximizing the stability of the product.
A bulk solution of 5 mg/mL of decitabine was prepared during compounding. To minimize degradation during compounding of the bulk solution prior to lyophilization, the bulk solution was maintained at low temperature, and the time the drug remains in solution prior to lyophilization was minimized. Maximum solution stability was achieved by dissolving the drug in a pH 6.8-7.0 phosphate buffer solution at 0-4° C.
Based on the results, appropriate recommendations for the preparation and storage of the reconstituted and diluted solutions can be made to pharmacists and clinical practitioners. The product was reconstituted in 10 mL WFI and diluted with one of the three pre-chilled infusion fluids indicated in Table 1 and Table 2 to two different concentrations, 0.1 mg/mL and 1 mg/mL covering the entire concentration range expected to be used in the clinical setting. The diluted solutions were stored for one to ten hours in infusion bags in the refrigerator at 2-8° C. to simulate conditions prior to infusion and then removed and placed at room temperature to simulate conditions during infusion. Bags placed in the refrigerator for one hour were removed and placed at room temperature and sampled thereafter for the next three hours at room temperature (Experiment No. 1) while the bags placed in the refrigerator for ten hours were removed and sampled for the next two hours at room temperature (Experiment No. 2).
The method used to estimate degradation products is based on percent peak area measurements assuming the degradation products have a response factor of 1, with respect to decitabine.
Table 1 and Table 2 also show the pH data obtained after the preparation of the infusion, which is consistently within ±0.3 pH units of neutral pH.

cytidine deaminases = conditions: enzymatic degradation by cytidine deaminases, particularly in the small intestine; cited from earlier work
[2] = about 1.0 mg/mL in 0.9% NaCl, Experiment 1 (2-8° C. one hour, then room temperature), at 0 h
[3] = about 1.0 mg/mL in 0.9% NaCl, Experiment 1 (2-8° C. one hour, then room temperature), at 1 h
[4] = about 1.0 mg/mL in 0.9% NaCl, Experiment 1 (2-8° C. one hour, then room temperature), at 2 h
[5] = about 1.0 mg/mL in 0.9% NaCl, Experiment 1 (2-8° C. one hour, then room temperature), at 3 h
[6] = about 1.0 mg/mL in 0.9% NaCl, Experiment 1 (2-8° C. one hour, then room temperature), at 4 h
[7] = about 1.0 mg/mL in 0.9% NaCl, Experiment 2 (2-8° C. ten hours, then room temperature), at 0 h
[8] = about 1.0 mg/mL in 0.9% NaCl, Experiment 2 (2-8° C. ten hours, then room temperature), at 10 h
[9] = about 1.0 mg/mL in 0.9% NaCl, Experiment 2 (2-8° C. ten hours, then room temperature), at 11 h
[10] = about 1.0 mg/mL in 0.9% NaCl, Experiment 2 (2-8° C. ten hours, then room temperature), at 12 h
[11] = about 1.0 mg/mL in 5% Dextrose, Experiment 1 (2-8° C. one hour, then room temperature), at 0 h
[12] = about 1.0 mg/mL in 5% Dextrose, Experiment 1 (2-8° C. one hour, then room temperature), at 1 h
[13] = about 1.0 mg/mL in 5% Dextrose, Experiment 1 (2-8° C. one hour, then room temperature), at 2 h
[14] = about 1.0 mg/mL in 5% Dextrose, Experiment 1 (2-8° C. one hour, then room temperature), at 3 h
[15] = about 1.0 mg/mL in 5% Dextrose, Experiment 1 (2-8° C. one hour, then room temperature), at 4 h
[16] = about 1.0 mg/mL in 5% Dextrose, Experiment 2 (2-8° C. ten hours, then room temperature), at 0 h
[17] = about 1.0 mg/mL in 5% Dextrose, Experiment 2 (2-8° C. ten hours, then room temperature), at 10 h
[18] = about 1.0 mg/mL in 5% Dextrose, Experiment 2 (2-8° C. ten hours, then room temperature), at 11 h
[19] = about 1.0 mg/mL in 5% Dextrose, Experiment 2 (2-8° C. ten hours, then room temperature), at 12 h
[20] = about 1.0 mg/mL in Lactated Ringer's, Experiment 1 (2-8° C. one hour, then room temperature), at 0 h
[21] = about 1.0 mg/mL in Lactated Ringer's, Experiment 1 (2-8° C. one hour, then room temperature), at 1 h
[22] = about 1.0 mg/mL in Lactated Ringer's, Experiment 1 (2-8° C. one hour, then room temperature), at 2 h
[23] = about 1.0 mg/mL in Lactated Ringer's, Experiment 1 (2-8° C. one hour, then room temperature), at 3 h
[24] = about 1.0 mg/mL in Lactated Ringer's, Experiment 1 (2-8° C. one hour, then room temperature), at 4 h
[25] = about 1.0 mg/mL in Lactated Ringer's, Experiment 2 (2-8° C. ten hours, then room temperature), at 0 h
[26] = about 1.0 mg/mL in Lactated Ringer's, Experiment 2 (2-8° C. ten hours, then room temperature), at 10 h
[27] = about 1.0 mg/mL in Lactated Ringer's, Experiment 2 (2-8° C. ten hours, then room temperature), at 11 h
[28] = about 1.0 mg/mL in Lactated Ringer's, Experiment 2 (2-8° C. ten hours, then room temperature), at 12 h

Nc1ncn([C@H]2C[C@H](O)[C@@H](CO)O2)c(=O)n1 [Decitabine, 4-amino-1-(2-deoxy-β-D-erythro-pentofuranosyl)-1,3,5-triazin-2(1H)-one]
pH after the preparation of the infusion ([1]; about 1.0 mg/mL in 0.9% NaCl): 6.7
Decitabine Content [1, 2]: 98.0%
Total Impurities [1, 2]: (2.1%)
Decitabine Content [1, 3]: 96.8%
Total Impurities [1, 3]: (3.3%)
Decitabine Content [1, 4]: 94.8%
Total Impurities [1, 4]: (5.2%)
Decitabine Content [1, 5]: 92.8%
Total Impurities [1, 5]: (7.3%)
Decitabine Content [1, 6]: 91.1%
Total Impurities [1, 6]: (9.0%)
Decitabine Content [1, 7]: 97.4%
Total Impurities [1, 7]: (2.7%)
Decitabine Content [1, 8]: 93.4%
Total Impurities [1, 8]: (6.7%)
Decitabine Content [1, 9]: 92.5%
Total Impurities [1, 9]: (7.6%)
Decitabine Content [1, 10]: 90.8%
Total Impurities [1, 10]: (9.2%)
pH after the preparation of the infusion ([1]; about 1.0 mg/mL in 5% Dextrose): 7.1
Decitabine Content [1, 11]: 98.0%
Total Impurities [1, 11]: (2.0%)
Decitabine Content [1, 12]: 97.0%
Total Impurities [1, 12]: (3.1%)
Decitabine Content [1, 13]: 95.6%
Total Impurities [1, 13]: (4.4%)
Decitabine Content [1, 14]: 93.7%
Total Impurities [1, 14]: (6.4%)
Decitabine Content [1, 15]: 91.9%
Total Impurities [1, 15]: (8.1%)
Decitabine Content [1, 16]: 97.7%
Total Impurities [1, 16]: (2.4%)
Decitabine Content [1, 17]: 94.5%
Total Impurities [1, 17]: (5.5%)
Decitabine Content [1, 18]: 93.9%
Total Impurities [1, 18]: (6.1%)
Decitabine Content [1, 19]: 93.0%
Total Impurities [1, 19]: (7.1%)
pH after the preparation of the infusion ([1]; about 1.0 mg/mL in Lactated Ringer's): 6.8
Decitabine Content [1, 20]: 98.1%
Total Impurities [1, 20]: (2.0%)
Decitabine Content [1, 21]: 97.3%
Total Impurities [1, 21]: (2.7%)
Decitabine Content [1, 22]: 96.2%
Total Impurities [1, 22]: (3.8%)
Decitabine Content [1, 23]: 95.1%
Total Impurities [1, 23]: (4.9%)
Decitabine Content [1, 24]: 93.7%
Total Impurities [1, 24]: (6.4%)
Decitabine Content [1, 25]: 98.0%
Total Impurities [1, 25]: (2.1%)
Decitabine Content [1, 26]: 94.1%
Total Impurities [1, 26]: (5.9%)
Decitabine Content [1, 27]: 93.3%
Total Impurities [1, 27]: (6.8%)
Decitabine Content [1, 28]: 91.8%
Total Impurities [1, 28]: (8.2%)
visual inspection of solutions ([1]; all reconstituted and diluted solutions): clear and colorless
drug content in the infusion solution during infusion ([1]; infusions prepared and stored as instructed): above 90%
oral bioavailability (cytidine deaminases): reduced oral bioavailability
